The values that follow come from patent US20100273769A1, “COMPOSITION AND METHOD FOR THE TREATMENT OF PARKINSON'S DISEASE” (priority 2009, published 2010).

In general, IC50 refers to the concentration that gives 50% inhibition. A low value points to greater potency.

One assay has as its target T1, G2019S mutant LRRK2 (Homo sapiens, UniProt Q5S007, G2019S).
T1 construct: of the mutant aa1326-2527 kinase fragment are used in the assays; GST; made in house
T1 sequence (Q5S007 1326-2527 G2019S): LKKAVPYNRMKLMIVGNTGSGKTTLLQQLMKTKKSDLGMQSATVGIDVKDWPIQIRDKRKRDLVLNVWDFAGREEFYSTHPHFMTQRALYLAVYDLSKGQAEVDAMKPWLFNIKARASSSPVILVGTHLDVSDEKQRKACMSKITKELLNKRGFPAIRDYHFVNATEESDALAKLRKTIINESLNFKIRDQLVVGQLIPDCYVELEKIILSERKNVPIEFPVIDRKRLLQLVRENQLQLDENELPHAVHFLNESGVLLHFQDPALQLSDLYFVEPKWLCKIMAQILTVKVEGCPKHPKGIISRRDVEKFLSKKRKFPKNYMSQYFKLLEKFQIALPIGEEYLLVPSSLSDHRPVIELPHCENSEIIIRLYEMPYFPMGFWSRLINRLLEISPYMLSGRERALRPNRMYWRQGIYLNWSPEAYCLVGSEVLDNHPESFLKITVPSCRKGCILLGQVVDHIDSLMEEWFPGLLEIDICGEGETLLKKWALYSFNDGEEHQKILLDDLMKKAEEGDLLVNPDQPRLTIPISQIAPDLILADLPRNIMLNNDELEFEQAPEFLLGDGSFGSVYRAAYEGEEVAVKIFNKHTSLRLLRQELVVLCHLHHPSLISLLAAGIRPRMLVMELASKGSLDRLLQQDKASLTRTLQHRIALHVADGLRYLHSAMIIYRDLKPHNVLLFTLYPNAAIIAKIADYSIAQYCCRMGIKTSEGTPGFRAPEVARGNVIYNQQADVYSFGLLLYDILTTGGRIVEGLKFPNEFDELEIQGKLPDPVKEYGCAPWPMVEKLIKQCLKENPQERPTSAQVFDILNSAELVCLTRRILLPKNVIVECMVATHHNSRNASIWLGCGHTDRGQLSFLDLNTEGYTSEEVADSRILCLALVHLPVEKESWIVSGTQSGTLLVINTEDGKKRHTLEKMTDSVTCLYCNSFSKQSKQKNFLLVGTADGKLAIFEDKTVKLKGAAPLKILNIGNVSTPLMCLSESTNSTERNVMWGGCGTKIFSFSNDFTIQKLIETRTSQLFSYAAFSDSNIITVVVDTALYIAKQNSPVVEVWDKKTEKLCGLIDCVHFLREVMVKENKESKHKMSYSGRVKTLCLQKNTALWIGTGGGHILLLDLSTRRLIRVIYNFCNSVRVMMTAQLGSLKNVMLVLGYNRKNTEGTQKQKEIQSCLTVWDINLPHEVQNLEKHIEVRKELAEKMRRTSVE
Briefly: Adapta assay, inhibition of G2019S mutant LRRK2 kinase fragment. Format: biochemical. The settings on record: 100 μM ATP, FIG. 3B. The procedure:
Duplicate assay mixtures are set up each in a 10 μL volume containing 17 ng (8 nM) of human LRRK2 protein fragment encompassing amino acids 1326 to 2527, obtained as a recombinant GST fusion protein [according to Jaleel et al., Biochem. J. 405, 307-317 (2007)], 200 μM LRRKtide ([…]peptide), 25 mM Tris, pH 8.2, 5 mM MgCl2, 0.5 mM EGTA, 100 μM ATP, 0.005% Brij-35, 1% DMSO, and compound 3 in a series of concentrations (OnM, 0.1 nM, 0.3 nM, 1 nM, 3 nM, 10 nM, 30 nM, 100 nM, 300 nM, 1000 nM). After incubation for 1 hr at ambient temperature, 5 μL of the Adapta® Assay Detection Mix (Invitrogen) is added, containing 30 mM EDTA to stop the kinase reaction, 30 nM of the Eu-labelled anti-ADP antibody, and the AlexaFluor°-ADP conjugate. […]
The assays conducted in a 384 well microplate are then read out in a fluorescence microplate reader to establish the ratio of emissions at 665 nm (ADP-tracer) and at 615 nm (Eu-antibody) as a measure of ADP concentration by virtue of Fluorescence Resonance Energy Transfer (FRET). The conversion in % of ATP into ADP by the kinase reaction in each well is determined from the ADP/ATP standard curve, and means are formed from each duplicate assay well. […]
Inhibition is determined in the same way as in example 2, except that due to the higher specific activity […] of the mutant aa1326-2527 kinase fragment are used in the assays

In another assay the target is ERK2 (Homo sapiens, UniProt P28482). Briefly: Kinase specificity, ERK2. Format: biochemical. The settings on record: 100 μM ATP.
Sequence of ERK2 (P28482 whole entry, species assumed): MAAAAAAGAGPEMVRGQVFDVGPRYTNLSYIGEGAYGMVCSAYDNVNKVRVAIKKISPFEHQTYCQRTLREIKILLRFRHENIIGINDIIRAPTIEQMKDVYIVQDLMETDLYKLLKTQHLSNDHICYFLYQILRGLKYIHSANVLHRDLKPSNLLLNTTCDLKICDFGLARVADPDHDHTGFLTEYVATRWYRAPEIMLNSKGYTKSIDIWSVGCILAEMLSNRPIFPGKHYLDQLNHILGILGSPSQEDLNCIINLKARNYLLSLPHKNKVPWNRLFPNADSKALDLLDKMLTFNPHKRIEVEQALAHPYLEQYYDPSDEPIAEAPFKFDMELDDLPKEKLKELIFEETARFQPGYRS

Take `CNC(=O)[C@@]1(N)CC2OC1(C)n1c3ccccc3c3c4c(c5c6ccccc6n2c5c31)C(=O)NC4` (some centres unmarked) [Compound 3]: the “IC50 relative to nominal kinase concentration, G2019S LRRK2” value at G2019S mutant LRRK2 is reported as “substantially below the nominal concentration of the kinase itself”. Also, the IC50 against ERK2 was 26 nM.
